Source: US11318131B2, “Nanoliposomal irinotecan for use in treating small cell lung cancer” (Ipsen Biopharm Ltd., priority 2015, dated 2022)
Like-named read-outs stand apart in the source and are kept apart here.

What was measured:
SW1271 SCLC cell line = assay: SN-38 in vitro growth and viability assay; type: cell-based
NCI-H1048 SCLC cell line [1] = assay: Cell growth inhibition kinetics, IncuCyte ZOOM System; type: cell-based; conditions: NCI-H1048, time-course of 88 hours
DMS53 SCLC cell line = assay: SN-38 in vitro growth and viability assay; type: cell-based
NCI-H1048 SCLC cell line [2] = test system: NCI-H1048 SCLC cell line
Description: (§1) Irinotecan liposome injection was administered intravenously to mice bearing xenograft tumors. At 24 hours post administration, mice were sacrificed and tumors were harvested. Irinotecan and SN-38 in tumors were measured by high performance liquid chromatography (HPLC). Data were normalized to injected dose per tumor weight. […] Cell growth inhibition kinetics of SN-38 in the cell lines was determined using IncuCyte® ZOOM System.

DMS114 SCLC cell line = test system: DMS114 SCLC cell line
Description: as §1

DMS-114 SCLC cell line = assay: Cell growth inhibition kinetics, IncuCyte ZOOM System; type: cell-based; conditions: DMS-114, time-course of 88 hours
DMS-114 xenograft [3] = assay: DMS-114 xenograft, topotecan-treated tumors; conditions: nal-IRI 16 mg/kg; irinotecan 33 mg/kg
DMS-114 xenograft [4] = assay: DMS-114 SCLC xenograft, NOD/SCID mice
NCI-H1048 xenograft [5] = assay: Second line SCLC model: NCI-H1048 after carboplatin plus etoposide; type: in vivo; conditions: weekly: nal-IRI 16 mg/kg IV; irinotecan 33 mg/kg IV; topotecan 1.66 mg/kg/wk IP days 1 and 2
Description: As described below, mice bearing NCI-H1048 SCLC tumors were treated with a carboplatin plus etoposide, a first line regimen in SCLC. Once the tumors escaped growth control by carboplatin plus etoposide, mice were randomized to either continue treatment with carboplatin plus etoposide or switch to second line treatment with either irinotecan liposome injection, non-liposomal irinotecan or topotecan.
NOD/SCID mice with NCIH1048 SCLC xenograft tumors were treated weekly with the combination of 30 mg/kg carboplatin plus 25 mg/kg etoposide. […] . […] . […] . FIG. 21B is a survival graph for mice on each of the treatments.

NCI-H1048 xenograft [6] = assay: NCI-H1048 SCLC xenograft, treatment naive; conditions: for anti-tumor activity / response (in words): NCI-H1048, irinotecan 33 mg/kg IV, weekly
[7] = test system: small cell lung cancer (SCLC); conditions: second line SCLC, cited from earlier work; for grade 3 or greater diarrhea / grade 3 or greater neutropenia rates / overall response rates / overall survival (OS) / progression free survival (PFS): topotecan 1.5 mg/m^2 days 1-5 every 3 weeks, non-liposomal irinotecan 300 mg/m^2 every 3 weeks; for overall survival: certain regimens
DMS-53 xenograft = assay: DMS-53 SCLC xenograft; conditions: nal-IRI 16 mg/kg IV, topotecan 0.83 mg/kg/wk days 1-2, weekly
[8] = nal-IRI 16 mg/kg IV, topotecan 0.83 mg/kg/wk days 1-2 IP

CCc1c2c(nc3ccc(O)cc13)-c1cc3c(c(=O)n1C2)COC(=O)[C@]3(O)CC [SN-38]
decrease in cell viability (SW1271 SCLC cell line): > 90%
concentration with cell killing after prolonged incubation times (NCI-H1048 SCLC cell line [1]): ≥ 10 nM
concentration with effective cell growth inhibition (NCI-H1048 SCLC cell line [1]): 1 to 10 nM
decrease in cell viability (DMS53 SCLC cell line): > 90%
decrease in cell viability (NCI-H1048 SCLC cell line [2]): > 90%
decrease in cell viability (DMS114 SCLC cell line): > 90%
concentration with cell killing after prolonged incubation times (DMS-114 SCLC cell line): ≥ 10 nM
concentration with effective cell growth inhibition (DMS-114 SCLC cell line): 1 to 10 nM

CCc1c2c(nc3ccc(OC(=O)N4CCC(N5CCCCC5)CC4)cc13)-c1cc3c(c(=O)n1C2)COC(=O)[C@]3(O)CC [non-liposomal irinotecan, (S)-4,11-diethyl-3,4,12,14-tetrahydro-4-hydroxy-3,14-dioxo1H-pyrano[3′,4′:6,7]-indolizino[1,2-b]quinolin-9-yl-[1,4′bipiperidine]-1′-carboxylate]
responsiveness of topotecan-treated DMS114 tumors (DMS-114 xenograft [3]): not
anti-tumor activity / response (in words) (DMS-114 xenograft [4]; DMS-114, nal-IRI 16 mg/kg IV, irinotecan 33 mg/kg IV, topotecan 0.83 mg/kg/wk days 1-2 IP, weekly): became less responsive after 2-3 cycles
anti-tumor activity in carboplatin plus etoposide-treated SCLC tumors (in words) (NCI-H1048 xenograft [5]): active but after 3rd cycle some tumors are trending regrowth
anti-tumor activity / response (in words) (NCI-H1048 xenograft [6]; [8]): progress after initially responding to treatment
grade 3 or greater diarrhea [7]: 0-13%
grade 3 or greater neutropenia rates [7]: 21-23%
overall response rates [7]: 0-33%
overall survival (OS) [7]: 4.6-6.9 months
progression free survival (PFS) [7]: 1.7-2.8 months

CC[C@@]1(O)C(=O)OCc2c1cc1n(c2=O)Cc2cc3c(CN(C)C)c(O)ccc3nc2-1 [topotecan]
anti-tumor activity / response (in words) (DMS-53 xenograft): limited tumor growth control
anti-tumor activity of bolus (day 1) compared to fractionated (days 1 & 2) dosing (DMS-114 xenograft [4]; same dose intensity, FIG. 15 (DMS-114, NCI-H1048)): less anti-tumor activity
anti-tumor activity in carboplatin plus etoposide-treated SCLC tumors (in words) (NCI-H1048 xenograft [5]): seems to be active after 1-2 cycles but progress quickly after 3rd dose
mice with complete tumor regressions after 4 cycles of treatment (NCI-H1048 xenograft [6]; Example 11, nal-IRI 16 mg/kg salt q1w, topotecan 0.83 mg/kg/week Day 1-2): 0 out of 7
mice with complete regressions of their tumors (NCI-H1048 xenograft [6]; Example 15, n=10, nal-IRI 16 mg/kg IV, topotecan 0.83 mg/kg/wk days 1-2 IP): 0 out of 10
anti-tumor activity / response (in words) (NCI-H1048 xenograft [6]; [8]): limited tumor growth control
overall survival ([7]; all patients): 7.8 months
overall survival ([7]; refractory patients): 5.7 months
overall survival ([7]; sensitive patients): 9.9 months
grade 3 or greater diarrhea [7]: less than 5%
grade 3 or greater neutropenia rates [7]: 28-88%
overall response rates [7]: 7-24%
overall survival (OS) [7]: 5.0-8.9 months
progression free survival (PFS) [7]: 3.1-3.7 months
